Data on 14 molecules can be found in US20240050428A1 (Cullgen (Shanghai), Inc., priority 2020, published 2024).

Like-named read-outs stand apart in the source and are kept apart here.

One assay deals with MV4;11 cells. The assay can be described thus: Cell viability assay (CellTiter-Glo) in MV4;11 cells, alone or with gilteritinib. In kind it is cell-based. The following applies: Homo sapiens, MV4-11, 72 h, MV4;11 cells, three days, CellTiter-Glo, read-out: MV4.
Another assay relates to MOLM-13 cells. Nature of the assay: Cell viability assay (CellTiter-Glo) in MOLM-13 cells, alone or with gilteritinib. Conditions: Homo sapiens, MOLM-13, 72 h, MOLM-13 cells, three days, CellTiter-Glo. In kind it is cell-based.
Setting [1] is: compound alone (without gilteritinib), 11 IC50.
[2] abbreviates: with gilteritinib 10 nM, 11 IC50 gilteritinib.
Setting [3] is: compound alone (without gilteritinib), read-out: MOLM-13 IC50.
Setting [4] is: with gilteritinib 20 nM, read-out: MOLM-13 IC50 gilteritinib.
The mark [5] stands for this setting: compound with gilteritinib 10 nM, 11 IC50 gilteritinib.
[6] abbreviates: compound with gilteritinib 20 nM, read-out: MOLM-13 IC50 gilteritinib.

Turning to `O=C1CCC(N2C(=O)c3ccc(NCCCCCCn4cc(-c5cnc6cccc(N7CCOCC7)c6n5)cn4)cc3C2=O)C(=O)N1` (centres unmarked) [GS-381, 2-(2,6-Dioxopiperidin-3-yl)-5-((6-(4-(8-morpholinoquinoxalin-2-yl)-1H-pyrazol-1-yl)hexyl)amino)isoindoline-1,3-dione], the IC50 in the assay on MV4;11 cells (setting [1]) was more than 1 µM; in the assay with MV4;11 cells (setting [2]) it was 0.1 to 1 µM; in the assay on MOLM-13 cells (setting [3]) it was more than 1 µM; with MOLM-13 cells (setting [4]), 0.01 to 0.1 µM.
On to `O=C(CCC(F)(F)C(=O)N1CCC(n2cc(-c3cnc4cccc(Br)c4n3)cn2)CC1)NCc1ccc2c(c1)CN(C1CCC(=O)NC1=O)C2=O` (centres unmarked) [GS-054, 5-(4-(4-(8-Bromoquinoxalin-2-yl)-1H-pyrazol-1-yl)piperidin-1-yl)-N-((2-(2,6-dioxopiperidin-3-yl)-1-oxoisoindolin-5-yl)methyl)-4,4-difluoro-5-oxopentanamide], for which the IC50 with MV4;11 cells (setting [1]) was less than 0.01 µM; in the assay with MV4;11 cells (setting [2]), less than 0.01 µM; with MOLM-13 cells (setting [3]), 0.01 to 0.1 µM; in the assay with MOLM-13 cells (setting [4]) it was less than 0.01 µM.
For the molecule `Cc1c(-c2cnc3ccccc3n2)cnn1[C@H]1C[C@@H](CCCNc2ccc3c(c2)C(=O)N(C2CCC(=O)NC2=O)C3=O)C1` (stereo partly drawn) [GS-169, 2-(2,6-Dioxopiperidin-3-yl)-5-((3-(cis-3-(5-methyl-4-(quinoxalin-2-yl)-1H-pyrazol-1-yl)cyclobutyl)propyl)amino)isoindoline-1,3-dione], the IC50 with MV4;11 cells (setting [1]) is 0.1 to 1 µM; with MV4;11 cells (setting [2]), more than 1 µM; in the assay on MOLM-13 cells (setting [3]) it was more than 1 µM; in the assay with MOLM-13 cells (setting [4]), 0.01 to 0.1 µM.
With `O=C1CCC(N2C(=O)c3ccc(NCCCCCC(=O)N4CCC(n5cc(-c6cnc7cccc(C8=CCNCC8)c7n6)cn5)CC4)cc3C2=O)C(=O)N1` (centres unmarked) [GS-480, 2-(2,6-dioxopiperidin-3-yl)-5-((6-oxo-6-(4-(4-(8-(1,2,3,6-tetrahydropyridin-4-yl)quinoxalin-2-yl)-1H-pyrazol-1-yl)piperidin-1-yl)hexyl)amino)isoindoline-1,3-dione], the IC50 in the assay on MV4;11 cells (setting [1]) is 0.01 to 0.1 µM; in the assay with MV4;11 cells (setting [5]), less than 0.01 µM; with MOLM-13 cells (setting [3]) it was 0.1 to 1 µM; in the assay on MOLM-13 cells (setting [6]), less than 0.01 µM.
Consider `CN1CCC(c2ccc3ncc(-c4cnn([C@H]5C[C@H](CCCNc6ccc7c(c6)C(=O)N(C6CCC(=O)NC6=O)C7=O)C5)c4)nc3c2)CC1` (stereo partly drawn) [GS-224, 2-(2,6-Dioxopiperidin-3-yl)-5-((3-(trans-3-(4-(7-(1-methylpiperidin-4-yl)quinoxalin-2-yl)-1H-pyrazol-1-yl)cyclobutyl)propyl)amino)isoindoline-1,3-dione], for which the IC50 with MV4;11 cells (setting [1]) is 0.1 to 1 µM; with MV4;11 cells (setting [2]), 0.01 to 0.1 µM; with MOLM-13 cells (setting [3]), 0.1 to 1 µM; in the assay on MOLM-13 cells (setting [4]) it was less than 0.01 µM.
Regarding `CN1C(=O)CCC(N2C(=O)c3ccc(NCCC[C@H]4C[C@H](n5cc(-c6cnc7ccccc7n6)c(C6CC6)n5)C4)cc3C2=O)C1=O` (stereo partly drawn) [GS-600, 5-((3-(trans-3-(3-Cyclopropyl-4-(quinoxalin-2-yl)-1H-pyrazol-1-yl)cyclobutyl)propyl)amino)-2-(1-methyl-2,6-dioxopiperidin-3-yl)isoindoline-1,3-dione], the IC50 with MV4;11 cells (setting [1]), in the assay on MV4;11 cells (setting [5]), in the assay with MOLM-13 cells (setting [3]) and with MOLM-13 cells (setting [6]) was more than 1 µM in each case.
With `O=C1CCC(N2C(=O)c3ccc(N4CCC(CCCn5cc(-c6cnc7ccccc7n6)cn5)CC4)cc3C2=O)C(=O)N1` (centres unmarked) [GS-363, 2-(2,6-Dioxopiperidin-3-yl)-5-(4-(3-(4-(quinoxalin-2-yl)-1H-pyrazol-1-yl)propyl)piperidin-1-yl)isoindoline-1,3-dione], the IC50 in the assay on MV4;11 cells (setting [1]) is 0.1 to 1 µM; in the assay on MV4;11 cells (setting [2]), 0.1 to 1 µM; in the assay with MOLM-13 cells (setting [3]), more than 1 µM; with MOLM-13 cells (setting [4]) it was more than 1 µM.
On to `O=C1CCC(N2C(=O)c3ccc(NC4CCC(CCCn5cc(-c6cnc7ccccc7n6)cn5)CC4)cc3C2=O)C(=O)N1` (centres unmarked) [GS-184, 2-(2,6-Dioxopiperidin-3-yl)-5-((4-(3-(4-(quinoxalin-2-yl)-1H-pyrazol-1-yl)propyl)cyclohexyl)amino)isoindoline-1,3-dione], for which the IC50 in the assay on MV4;11 cells (setting [1]) is 0.1 to 1 µM; in the assay on MV4;11 cells (setting [2]), more than 1 µM; with MOLM-13 cells (setting [3]), more than 1 µM; in the assay with MOLM-13 cells (setting [4]) it was 0.1 to 1 µM.
In the case of `Cc1nn(CCCCCCNc2ccc3c(c2)C(=O)N(C2CCC(=O)NC2=O)C3=O)c(C)c1-c1ncc2ccccc2n1` (centres unmarked) [GS-151, 5-((6-(3,5-Dimethyl-4-(quinazolin-2-yl)-1H-pyrazol-1-yl)hexyl)amino)-2-(2,6-dioxopiperidin-3-yl)isoindoline-1,3-dione], the IC50 with MV4;11 cells (setting [1]) was 0.01 to 0.1 µM; in the assay with MV4;11 cells (setting [2]) it was less than 0.01 µM; with MOLM-13 cells (setting [3]), 0.01 to 0.1 µM; with MOLM-13 cells (setting [4]), less than 0.01 µM.
Take `O=C1CCC(N2C(=O)c3ccc(NCCC[C@H]4C[C@H](n5cc(-c6cnc7c(Cl)cccc7n6)cn5)C4)cc3C2=O)C(=O)N1` (stereo partly drawn) [GS-219, 5-((3-(trans-3-(4-(5-Chloroquinoxalin-2-yl)-1H-pyrazol-1-yl)cyclobutyl)propyl)amino)-2-(2,6-dioxopiperidin-3-yl)isoindoline-1,3-dione]: the IC50 in the assay on MV4;11 cells (setting [1]) is 0.1 to 1 µM; with MV4;11 cells (setting [2]) it was 0.01 to 0.1 µM; in the assay on MOLM-13 cells (setting [3]), more than 1 µM; in the assay with MOLM-13 cells (setting [4]) it was 0.01 to 0.1 µM.
For `CN1CCN(c2cccc3ncc(-c4cnn(CCCCCCNc5ccc6c(c5)C(=O)N(C5CCC(=O)NC5=O)C6=O)c4)nc23)CC1` (centres unmarked) [GS-383, 2-(2,6-Dioxopiperidin-3-yl)-5-((6-(4-(8-(4-methylpiperazin-1-yl)quinoxalin-2-yl)-1H-pyrazol-1-yl)hexyl)amino)isoindoline-1,3-dione], the IC50 in the assay on MV4;11 cells (setting [1]) is more than 1 µM; with MV4;11 cells (setting [2]), 0.1 to 1 µM; with MOLM-13 cells (setting [3]) it was more than 1 µM; in the assay on MOLM-13 cells (setting [4]), more than 1 µM.
For `CN1CCN(c2ccc3nc(-c4cn([C@H]5C[C@H](CNc6ccc7c(c6)C(=O)N(C6CCC(=O)NC6=O)C7=O)C5)nc4C4CC4)cnc3c2)CC1` (stereo partly drawn) [GS-314, 5-(((trans-3-(3-Cyclopropyl-4-(6-(4-methylpiperazin-1-yl)quinoxalin-2-yl)-1H-pyrazol-1-yl)cyclobutyl)methyl)amino)-2-(2,6-dioxopiperidin-3-yl)isoindoline-1,3-dione], the IC50 is 0.01 to 0.1 µM in the assay with MV4;11 cells (setting [1]), less than 0.01 µM with MV4;11 cells (setting [2]), 0.01 to 0.1 µM in the assay on MOLM-13 cells (setting [3]) and less than 0.01 µM in the assay with MOLM-13 cells (setting [4]).
On to `O=C1CCC(N2C(=O)c3ccc(NC[C@H]4C[C@H](n5cc(-c6ccc(NC7CCNCC7)cn6)c(C6CC6)n5)C4)cc3C2=O)C(=O)N1` (stereo partly drawn) [GS-302, 5-(((trans-3-(3-Cyclopropyl-4-(5-(piperidin-4-ylamino)pyridin-2-yl)-1H-pyrazol-1-yl)cyclobutyl)methyl)amino)-2-(2,6-dioxopiperidin-3-yl)isoindoline-1,3-dione], for which the IC50 with MV4;11 cells (setting [1]), in the assay on MV4;11 cells (setting [2]), in the assay on MOLM-13 cells (setting [3]) and with MOLM-13 cells (setting [4]) was more than 1 µM each time.
On to `O=C1CCC(N2Cc3c(NC4CCCC(CCCC(=O)N5CCC(n6cc(-c7cnc8ccccc8n7)cn6)CC5)C4)cccc3C2=O)C(=O)N1` (centres unmarked) [GS-154, 3-(1-Oxo-4-((3-(4-oxo-4-(4-(4-(quinoxalin-2-yl)-1H-pyrazol-1-yl)piperidin-1-yl)butyl)cyclohexyl)amino)isoindolin-2-yl)piperidine-2,6-dione], for which the IC50 in the assay on MV4;11 cells (setting [1]), with MV4;11 cells (setting [2]), in the assay with MOLM-13 cells (setting [3]) and with MOLM-13 cells (setting [4]) was more than 1 µM in each case.
